According to article PMC10975498, “Trimethyltin(IV) Bearing 3-(4-Methyl-2-oxoquinolin-1(2H)-yl)propanoate Causes Lipid Peroxidation-Mediated Autophagic Cell Death in Human Melanoma A375 Cells” (Pharmaceuticals, 2024):

Biological target: T1, Bovine Serum Albumin (BSA) (Bos taurus, UniProt P02769)
T1 construct: gene ALB
Assay: spectrofluorometric titration (tryptophan fluorescence quenching, double-log Stern-Volmer) at […] and […] °C; Kb given is at […] °C
Assay type: binding
Conditions: read-out: spectrofluorometric titration (tryptophan fluorescence quenching, double-log Ste) (converted)

T1 sequence (P02769 25-607): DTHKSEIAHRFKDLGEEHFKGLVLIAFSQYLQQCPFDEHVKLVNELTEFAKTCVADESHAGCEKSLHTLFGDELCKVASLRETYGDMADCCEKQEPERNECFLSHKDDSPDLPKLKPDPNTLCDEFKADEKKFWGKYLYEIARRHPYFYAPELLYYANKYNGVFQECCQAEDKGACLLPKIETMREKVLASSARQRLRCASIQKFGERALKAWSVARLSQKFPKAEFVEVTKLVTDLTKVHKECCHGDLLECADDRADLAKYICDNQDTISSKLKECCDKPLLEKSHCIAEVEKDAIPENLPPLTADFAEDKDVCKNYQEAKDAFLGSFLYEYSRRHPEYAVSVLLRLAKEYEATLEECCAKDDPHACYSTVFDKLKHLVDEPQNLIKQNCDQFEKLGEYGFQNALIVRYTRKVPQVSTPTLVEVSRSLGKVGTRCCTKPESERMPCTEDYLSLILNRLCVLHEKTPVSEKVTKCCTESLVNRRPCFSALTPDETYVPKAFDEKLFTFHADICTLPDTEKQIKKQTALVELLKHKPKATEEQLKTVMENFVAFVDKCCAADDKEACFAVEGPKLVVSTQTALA

Compound: Cc1cc(=O)n(CCC(=O)[O][Sn]([CH3])([CH3])[CH3])c2ccccc12 [Me3SnL, (3-(4-methyl-2-oxoquinolin-1(2H)-yl)propanoato)trimethyltin(IV)]
- Kd: 422 nM
